A short description of test [1]: Binding affinity to human telomeric sequence in HBS-EP buffer at pH 7.4 at 25 degC by SPR analysis. Background: Surface plasmon resonance follows binding to a sensor surface in real time, without labels.
A short description of test [2]: Binding affinity to 5'-Biotin-GGTTAGAGTTAGGTTTTCCTAACTCTAACC-3' (unknown origin) in HBS-EP buffer at pH 7.4 at 25 degC by SPR analysis.
Test [3] in a line: Selectivity ratio of KD for 5'-Biotin-GGTTAAGGTTAGGTTTTCCTAACCTTAACC-3' (unknown origin) to KD for human telomeric sequence.
The nature of test [4]: Selectivity ratio of KD for 5'-Biotin-GGTTAGAGTTAGGTTTTCCTAACTCTAACC-3' (unknown origin) to KD for human telomeric sequence.
Test [5] can be described thus: Binding affinity to 5'-GGTTAAGGTTAGG-3'/3'-CCAATTCCAATCC-5' (unknown origin) assessed as change in melting temperature at pH 7 by UV-Vis spectrophotometry.
A short description of test [6]: Binding affinity to 5'-Biotin-GGTTAAGGTTAGGTTTTCCTAACCTTAACC-3' (unknown origin) in HBS-EP buffer at pH 7.4 at 25 degC by SPR analysis.
Test [7] can be described thus: Binding affinity to 5'-GGTTAGAGTTAGG-3'/3'-CCAATCTCAATCC-5' (unknown origin) assessed as change in melting temperature at pH 7 by UV-Vis spectrophotometry.
For test [8], the species on record is Homo sapiens. As to the kind of experiment: Binding affinity to human telomeric sequence assessed as change in melting temperature at pH 7 by UV-Vis spectrophotometry.

As usually defined, the Kd is the free concentration of one partner at which half of the binding sites on the other are occupied at equilibrium, for simple one-to-one binding. A low value points to a tighter complex. Broadly, the ΔTm is the shift of the melting midpoint relative to a reference.

Structures are written as SMILES.

With `CN(CCCNC(=O)CCNC(=O)c1nc(NC(=O)c2cc(NC(=O)c3cc(NC(=O)c4cc(NC(=O)[C@@H](CCNC(=O)c5cc(NC(=O)c6nc(NC(=O)c7nccn7C)cn6C)cn5C)NC(=O)COCCOCCNC(=O)c5nc(NC(=O)c6cc(NC(=O)c7cc(NC(=O)c8cc(NC(=O)[C@H](N)CCNC(=O)c9cc(NC(=O)c%10nc(NC(=O)c%11nccn%11C)cn%10C)cn9C)cn8C)cn7C)cn6C)cn5C)cn4C)cn3C)cn2C)cn1C)CCCNS(=O)(=O)c1ccc(C2=c3cc4c5c(c3Oc3c2cc2c6c3CCCN6CCC2)CCC[N+]=5CCC4)c(S(=O)(=O)[O-])c1`, the dissociation constant Kd in test [1] was 0.93 nM.

As for `CN(CCCN)CCCNC(=O)CCNC(=O)c1nc(NC(=O)c2cc(NC(=O)c3cc(NC(=O)c4cc(NC(=O)[C@H](N)CCNC(=O)c5cc(NC(=O)c6nc(NC(=O)c7nccn7C)cn6C)cn5C)cn4C)cn3C)cn2C)cn1C`, the figures for the Kd in test [2], in test [1] and in test [6] were 30.4 nM, 1.76 nM and 0.627 nM, respectively. Moreover, the figures for the Ratio in test [3] and in test [4] were 0.36 and 17.3, respectively. Moreover, the ΔTm worked out at 29.3 °C in test [5], 22.4 °C in test [7] and 27.8 °C in test [8].

Consider `CN(CCCN)CCCNC(=O)CCNC(=O)c1cc(NC(=O)c2cc(NC(=O)c3cc(NC(=O)c4cc(NC(=O)[C@H](N)CCNC(=O)c5cc(NC(=O)c6nc(NC(=O)c7nc(NC(=O)c8nccn8C)cn7C)cn6C)cn5C)cn4C)cn3C)cn2C)cn1C`, for which the Kd in test [2] amounted to 51.1 nM; in test [1], 1.56 nM; in test [6], 20.7 nM. Also, the Ratio in test [3] stood at 13.3; in test [4], 32.8. For the same compound, the values for the ΔTm in test [5], in test [7] and in test [8] were 24.8 °C, 18.3 °C and 27.7 °C, respectively.

On to `CN(CCCN)CCCNC(=O)CCNC(=O)c1cc(NC(=O)c2cc(NC(=O)c3cc(NC(=O)c4cc(NC(=O)[C@H](N)CCNC(=O)c5cc(NC(=O)c6nc(NC(=O)c7nccn7C)cn6C)cn5C)cn4C)cn3C)cn2C)cn1C`, for which the results for the Kd in test [2], in test [1] and in test [6] were 10.6 nM, 0.431 nM and 0.00561 nM, respectively. Further, the Ratio was 0.013 in test [3] and 24.6 in test [4]. In addition, the values for the ΔTm in test [5], in test [7] and in test [8] were 31.6 °C, 21.6 °C and 27.4 °C, respectively.
